This is an account of results in patent publication US5478807A, “Use of relaxin in the treatment of bradycardia” (Genentech, Inc., priority 1992, dated 1995).

Experiment [1] has as its target T1, relaxin receptors in the atria of rat heart (Rattus norvegicus, UniProt Q6R6I6).
T1 construct: The frozen tissues were sectioned to 16 μm thickness; from tissue; host or cells: rat heart (right and left atrium) frozen sections, from normal and from hormone-treated gonadectomized rats
T1 sequence (Q6R6I6 1-758): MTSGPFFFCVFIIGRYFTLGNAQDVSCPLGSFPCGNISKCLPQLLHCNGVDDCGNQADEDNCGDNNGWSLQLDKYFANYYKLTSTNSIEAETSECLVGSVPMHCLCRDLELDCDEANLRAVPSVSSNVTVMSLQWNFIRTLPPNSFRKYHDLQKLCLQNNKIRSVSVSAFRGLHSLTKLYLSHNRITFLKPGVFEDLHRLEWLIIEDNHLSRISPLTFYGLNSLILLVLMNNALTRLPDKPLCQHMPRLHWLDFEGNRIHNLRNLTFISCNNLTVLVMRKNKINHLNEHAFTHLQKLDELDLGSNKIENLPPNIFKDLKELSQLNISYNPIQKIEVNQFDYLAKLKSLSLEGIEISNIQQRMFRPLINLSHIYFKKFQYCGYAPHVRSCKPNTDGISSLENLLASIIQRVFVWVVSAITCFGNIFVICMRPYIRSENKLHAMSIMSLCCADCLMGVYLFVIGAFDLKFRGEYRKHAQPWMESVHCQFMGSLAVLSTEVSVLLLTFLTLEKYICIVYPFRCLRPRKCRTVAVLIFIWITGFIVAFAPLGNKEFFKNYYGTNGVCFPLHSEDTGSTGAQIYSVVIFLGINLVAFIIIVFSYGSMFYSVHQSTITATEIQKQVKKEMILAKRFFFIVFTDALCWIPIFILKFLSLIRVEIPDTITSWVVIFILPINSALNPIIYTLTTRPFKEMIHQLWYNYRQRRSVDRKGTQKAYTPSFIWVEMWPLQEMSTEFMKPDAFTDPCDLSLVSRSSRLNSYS
The experiment is described as follows: Displacement of 32P-relaxin binding in rat heart tissue sections (autoradiography). The note with it: for Kd: read-out: dissociation constant (Kd). Here is the method: Ten-week-old normal male and cyclic female Sprague-Dawley rats (Charles River Breeding Laboratories, Wilmonton, Mass.) were used for binding specificity and binding displacement experiments. These were given food and water ad libidium and housed in a room with the ambient temperature controlled around 21° C.
For hormonal control experiments, 10-11-week-old female rats were ovariectomized for two weeks and then injected s.c. with 10 μg estradiol cyclopentyl propionate in a […] vehicle or with vehicle alone. Likewise, 10-11-week-old male rats were castrated for 2 weeks and were injected with either 10 μg estradiol cyclopentyl propionate, 10 μg testosterone, or vehicle alone. The rats were sacrificed 7 days later by asphyxiation with CO2. The relevant tissues were removed rapidly and frozen in powdered dry ice immediately.
The frozen tissues were sectioned to 16 μm thickness using a Reichert-Jung Model 2800 Frigocut cryostat (Cambridge Instruments). Tissue sections were fixed onto gelatin/chromium potassium sulfate treated microscope slides by warming, and immediately refrozen and stored at -80° C. overnight or longer.
For binding of ^32 P-relaxin to the tissue sections, frozen slides were prewashed with binding buffer (Hank's balanced salt solution supplemented with 20 mMHEPES, pH 7.2, 1 mg/ml BSA, 0.1 mM PMSF, and 1 μg/ml leupeptin) at 4° C. for 1.5-2 hours. The tissue sections were then covered with 600-700 μl of 100 pM ^32 P-relaxin with or without excess unlabeled relaxin and other competing agents as specificity control, and incubated at 4° C. for one hour. The slides were washed 3 times for 15-30 minutes each, with binding buffer. The slides were air-dried and mounted on filter paper and exposed to Hyperfilm-βMAX (Amersham) for 3-5 days.
Regions of binding were determined by overlaying the autoradiographs with adjacent sections counterstained with hematoxylin-eosin. For relaxin binding displacement experiments, consecutive 16 μm sections were incubated with 100 pM of ^32 P-relaxin in the absence and presence of increasing concentrations (serial three-fold increases) of unlabeled relaxin in the range of 0.1-100 nM. Pseudocolor reconstruction and quantitative analysis of ^32 P-relaxin binding autoradiographs were performed with a RAS-3000 image analysis system (Amersham). The OD or radioactivities (cpm) of bound ^32 P relaxin (maximum binding in a particular region) were quantified by computerized densitometry based on parallel sets of ^32 P-relaxin standards (ranging from 50 to 2000 cpm) blotted onto nitrocellulose membranes (Trans-Blot SF, Bio-Rad, Richmond, Calif.). The binding inhibition data were fit to a four parameter equation to obtain the ED50 (the concentration of unlabeled relaxin yielding 50% displacement of the binding of ^32 p-relaxin). The dissociation constant (Kd) for relaxin was calculated by the method of Cheng and Prusoff [Biochem. Pharmacol. 22, 3099-3108 (1973)].

In experiment [2] the test system is primary human uterine cell line. The experiment can be described thus: cAMP bioassay in primary human uterine cell line. The class given is cell-based. As for the experimental part:
The phosphorylated relaxin was assayed for its ability to increase cAMP levels in a primary human uterine cell line. The procedure of Kramer et al. [Kramer et al., In Vitro Cell, Dev, Biol. 26, 647-656 (1990)] was modified and carried out as follows: human uterine cells at passage 15-22 were grown to confluency in Ham's F12/DMEM (1/1, v/v) medium supplemented with 10% heat-inactivated newborn calf serum, 100 unites/ml penicillin, 100 μg/ml streptomycin, 2 mM glutamine and 24 mMHEPES, pH 7.4. Cells were plated into 6-well culture plates at 10^5 cells/well and incubated overnight at 37° C. and 5% CO2 in air. The cells (at 60-80% confluency) were then washed twice with F12/DMEM-24 mMHEPES, pH 7.4 (buffer B) at room temp. […] Aliquots of the extracts were then neutralized with 0.1 N NaOH and cAMP levels were measured in a radioimmunoassay. The assay was based on the competition between cAMP and a fixed quantity of ^125 I-labeled cAMP (Du Pont) for binding to a goat anti-cAMP antibody (Cambridge). […] The radioactivity in the pellet was measured in a gamma counter, and the amount of cAMP in the samples was determined by comparison with a standard cAMP curve. A relaxin standard curve was constructed in which the cAMP concentrations (pmol/ml) determined in the radioimmunoassay were plotted as a function of stimulating relaxin concentrations (ng/ml). […]

Like-named read-outs stand apart in the source and are kept apart here.

Turning to relaxin, in experiment [1] (100 nM competitor, normal female rat heart), the “displacement of the binding of 100 pM 32P-relaxin” value is “displacement of the binding of 100 pM ^32 P-relaxin by 100 nM unlabeled relaxin”. Moreover, the “displacement of the binding of 32P-relaxin” value in experiment [1] (100 nM unlabeled relaxin, atria of normal male rat heart) was “fully displaced”. The dissociation constant Kd in experiment [1] (atria of estrogen-treated ovariectomized rat heart) is 0.86 ± 0.35 nM; in experiment [1] (atria of normal female rat heart, displacement of 32P-H2 relaxin, mean±S.E. of two regions), 1.37 ± 0.13 nM. Besides, the “extent of displacement of 32P-relaxin binding” value in experiment [1] (heart, increasing concentrations of unlabeled relaxin) is “total displacement”. In addition, the biological activity result in experiment [2] is on record as “biologically active”.

A word on the Kd: it is the equilibrium constant for the complex coming apart.
